Reference: ChEMBL document CHEMBL3885861, “Open TG-GATES”

Organism: Rattus norvegicus
Experiment: Open TG-GATES - Regimen: Daily Repeat
Format: toxicity, organism-based, Sprague-Dawley
Design: regimen Daily Repeat, gender Male, age 6 weeks
Conditions: in vivo, po, 400 mg/kg, route gavage, dose level Low; for APTT / Bas / Eos / Fbg / Hb / Ht / Lym / MCH / MCHC / MCV / Mono / Neu / PT / Plat / RBC / Ret / WBC: tissue Blood; for KIDNEY_L / KIDNEY_R / KIDNEY_TOTAL: tissue Kidney; for LIVER: tissue Liver; for A/G / ALP / ALT / AST / BUN / CRE / Ca / Cl / DBIL / GLC / IP / K / LDH / Na / PL / RALB / TBIL / TC / TG / TP / gamma-GTP: tissue Plasma

## CCO [ALCOHOL]
72 h, time 3 day
  TERMINAL_BW: 236 g
  APTT: 17.7 s
  Bas: 0%
  Eos: 1%
  Fbg: 209.2 mg/dL
  Hb: 13.4 g/dL
  Ht: 39.9%
  Lym: 73.4%
  MCH: 21.9 pg
  MCHC: 33.7%
  MCV: 65 fL
  Mono: 8.4%
  Neu: 17%
  PT: 11.1 s
  Plat: 134.3 x10_4/uL
  RBC: 614.8 x10_4/ul
  Ret: 7.6%
  WBC: 100.6 x10_2/uL
  KIDNEY_L: 1 g
  KIDNEY_R: 1.1 g
  KIDNEY_TOTAL: 2.1 g
  LIVER: 11.5 g
  A/G: 2.3
  ALP: 965.4 IU/L
  ALT: 33 IU/L
  AST: 63.8 IU/L
  BUN: 17.2 mg/dL
  CRE: 0.5 mg/dL
  Ca: 11.1 mg/dL
  Cl: 104.4 meq/L
  DBIL: 0.022 mg/dL
  GLC: 198 mg/dL
  IP: 7.9 mg/dL
  K: 4.5 meq/L
  LDH: 103.4 IU/L
  Na: 140.6 meq/L
  PL: 140.6 mg/dL
  RALB: 4 g/dL
  TBIL: 0.3 mg/dL
  TC: 73 mg/dL
  TG: 82.8 mg/dL
  TP: 5.7 g/dL
  gamma-GTP: 2.4 IU/L
[…], time 7 day
  TERMINAL_BW: 263.9 g
  APTT: 17.6 s
  Bas: 0%
  Eos: 0.8%
  Fbg: 219.6 mg/dL
  Hb: 14.1 g/dL
  Ht: 41.5%
  Lym: 79.6%
  MCH: 21.1 pg
  MCHC: 34.1%
  MCV: 62 fL
  Mono: 5.2%
  Neu: 14.2%
  PT: 11.2 s
  Plat: 133.9 x10_4/uL
  RBC: 669.2 x10_4/ul
  Ret: 5.7%
  WBC: 101.8 x10_2/uL
  KIDNEY_L: 1.1 g
  KIDNEY_R: 1.1 g
  KIDNEY_TOTAL: 2.2 g
  LIVER: 12.6 g
  A/G: 2.3
  ALP: 771.4 IU/L
  ALT: 33.2 IU/L
  AST: 63.4 IU/L
  BUN: 20.8 mg/dL
  CRE: 0.5 mg/dL
  Ca: 10.6 mg/dL
  Cl: 104.6 meq/L
  DBIL: 0 mg/dL
  GLC: 197 mg/dL
  IP: 8.1 mg/dL
  K: 4.7 meq/L
  LDH: 95 IU/L
  Na: 141.6 meq/L
  PL: 158.2 mg/dL
  RALB: 4.1 g/dL
  TBIL: 0.4 mg/dL
  TC: 76.2 mg/dL
  TG: 156.4 mg/dL
  TP: 5.8 g/dL
  gamma-GTP: 1.4 IU/L
[…], time 14 day
  TERMINAL_BW: 307 g
  APTT: 16.7 s
  Bas: 0%
  Eos: 1%
  Fbg: 217.6 mg/dL
  Hb: 15 g/dL
  Ht: 43.7%
  Lym: 80.6%
  MCH: 20.2 pg
  MCHC: 34.3%
  MCV: 58.9 fL
  Mono: 5.6%
  Neu: 12.8%
  PT: 11.3 s
  Plat: 127.7 x10_4/uL
  RBC: 742.4 x10_4/ul
  Ret: 4.2%
  WBC: 122.9 x10_2/uL
  KIDNEY_L: 1.2 g
  KIDNEY_R: 1.2 g
  KIDNEY_TOTAL: 2.3 g
  LIVER: 13.1 g
  A/G: 2
  ALP: 804.6 IU/L
  ALT: 36 IU/L
  AST: 59.2 IU/L
  BUN: 19.2 mg/dL
  CRE: 0.5 mg/dL
  Ca: 11 mg/dL
  Cl: 105.2 meq/L
  DBIL: 0.028 mg/dL
  GLC: 207.4 mg/dL
  IP: 7.4 mg/dL
  K: 4.2 meq/L
  LDH: 103.2 IU/L
  Na: 142.2 meq/L
  PL: 150.8 mg/dL
  RALB: 3.9 g/dL
  TBIL: 0.4 mg/dL
  TC: 73 mg/dL
  TG: 116.8 mg/dL
  TP: 5.9 g/dL
  gamma-GTP: 0.6 IU/L
[…], time 28 day
  TERMINAL_BW: 352 g
  APTT: 17.2 s
  Bas: 0%
  Eos: 1.6%
  Fbg: 212 mg/dL
  Hb: 15.7 g/dL
  Ht: 46.9%
  Lym: 80.4%
  MCH: 18.8 pg
  MCHC: 33.6%
  MCV: 55.9 fL
  Mono: 6%
  Neu: 12.4%
  PT: 11.3 s
  Plat: 126.5 x10_4/uL
  RBC: 839 x10_4/ul
  Ret: 7.1%
  WBC: 104.7 x10_2/uL
  KIDNEY_L: 1.3 g
  KIDNEY_R: 1.3 g
  KIDNEY_TOTAL: 2.6 g
  LIVER: 13.5 g
  A/G: 1.6
  ALP: 710 IU/L
  ALT: 30.2 IU/L
  AST: 64 IU/L
  BUN: 20 mg/dL
  CRE: 0.6 mg/dL
  Ca: 10.4 mg/dL
  Cl: 107 meq/L
  DBIL: 0.002 mg/dL
  GLC: 205.6 mg/dL
  IP: 6.4 mg/dL
  K: 4.3 meq/L
  LDH: 96.4 IU/L
  Na: 140.4 meq/L
  PL: 141.4 mg/dL
  RALB: 3.8 g/dL
  TBIL: 0.3 mg/dL
  TC: 69.4 mg/dL
  TG: 113.6 mg/dL
  TP: 6.1 g/dL
  gamma-GTP: 1.4 IU/L
